From patent US11576901B2, “Methods for treating viral infection” (HOWARD UNIVERSITY, priority 2016, dated 2023)

Experiments:
Format in all cases: cell-based
HSV-1 = assay: Western assay of IE, DE and L HSV-1 proteins (ICP0, ICP8, gD) in infected Hep-2 cells; conditions: 100 μM, 24 hours pretreatment, HSV-1 0.01 to 1.25 MOI, twenty hours after infection, FIG. 6
Source text: Compounds in accordance with General Formula 1, including derivatives in accordance with any of General Formulae 1-1 to 1-20, can be evaluated for the capacity to inhibit triggered expression of at least a portion of a virus genome containing an IRES sequence by administering the compound, or a pharmaceutically acceptable salt of the compound, to a cell culture and exposing the cell culture to a HSV-1 infection. After a sufficient amount of time, the culture can be examined to determine the expression of IE, DE and L genes. If the amount of at least one protein corresponding to an IE gene and at least one protein corresponding to a DE and/or L gene within the viral genome is diminished compared to that within an identical infected cell culture not treated with the compound or its salt, then the compound would be capable of inhibiting triggered expression of at least a portion of the viral genome. […]
Compounds in accordance with General Formula 1, including derivatives in accordance with any of General Formulae 1-1 to 1-20, or pharmaceutically acceptable salts thereof, can be assessed for the ability to inhibit triggered expression of at least a portion of the HSV-1 genome by infecting Hep-2 cells with the HSV-1 virus. […]

[1] = test system: HIV1 modified pNL4-3.Luc.R-E-virus; assay: Luciferase luminescence of CEM T cells infected with HIV1 modified pNL4-3.Luc.R-E-virus; parameters: dose or concentration left out as unconfirmed; conditions: CEM T cells pretreated before infection; vs untreated and DMSO; FIG. 2
Source text: The expression of the protein assessed may be native, i.e. naturally occurring within the genome of the virus to be treated. In combination or the alternative, expression of a protein introduced to the viral genome may be assessed. Assessing the expression of an introduced protein may enable an assessment of viral proliferation by means not normally permitted by the native viral genome. For example, proliferation of the HIV1 virus can be assessed using luminescence with the HIV1 modified pNL4-3.Luc.R-E-virus. […] Accordingly, proliferation of the HIV1 modified pNL4-3.Luc.R-E-virus will entail production of the luciferase protein. […]
Accordingly, compounds in accordance with General Formula 1, including derivatives in accordance with General Formulae 1-1 to 1-20, or pharmaceutically acceptable salts thereof, can be assessed for the ability to inhibit proliferation of the HIV1 by infecting CEM T cells with the HIV1 modified pNL4-3.Luc.R-E-virus. […]
Prior to infection with the HIV1 modified pNL4-3.Luc.R-E-virus, the CEM T cells were pretreated with either SD-29 or DMSO ([…]) or left untreated. […] To assess luminescence, 100 μL of the cell suspension and […] of reconstituted luciferase buffer (Luclite Kit, Perkin Elmer) were added to wells and allowed to incubate for 10 minutes. […]

CEM T cells = assay: Percent of viable CEM T cells after infection; conditions: CEM T cells after infection with HIV1 modified pNL4-3.Luc.R-E-virus; FIG. 3
Source text: It is possible that the diminished expression of a protein within the genome of a virus containing an IRES sequence may have been brought about by the compound inhibiting the ability infected cells to survive. If the compound or salt diminishes viability or is otherwise toxic to the cell, then diminished expression of a protein within the genome of a virus containing an IRES sequence may be the result of infected cells dying before sufficient levels of the protein can be expressed. Determining if diminished expression of a protein is the result of cell death or other toxic effects of the compound or salt may be accomplished by assessing the viability of cells after administration of the compound or salt. Accordingly, in some embodiments of assessing the ability of a compound in accordance with General Formula 1, including derivatives in accordance with any of General Formulae 1-1 to 1-20, or pharmaceutically acceptable salts thereof, to inhibit the expression of at least a portion of a virus genome containing an IRES sequence, the compound or salt may be assessed for its ability to preserve viability of cells following administration. […]

RACK-1 = molecular target: T1, RACK-1 (Homo sapiens, UniProt P63244); assay: Western assay of RACK-1 expression in HSV-1 infected Hep-2 cells; conditions: 100 μM, 24 hours pretreatment, twenty hours after infection, FIG. 6
T1 construct: endogenous in cells; host or cells: Hep-2 cells infected with HSV-1
Description: FIG. 6 is a Western assay showing expression of RACK-1, the IE protein ICP0, DE protein ICP8 and the L protein gD following infection of Hep-2 cells at varying multiplicity of infection (MOI) of HSV-1. In FIG. 6, ICP0 designates immediate early viral protein, ICP8 designates early viral protein, and dD designates late viral protein. Tubulin was used as a sample loading control. Prior to infection, Hep-2 cells were treated with DSMO as a control, 100 μM SD-29 or 100 μM SD29-12. After 24 hours of pretreatment, the Hep-2 cells were infected with HSV-1 at either 0.01, 0.05, 0.25 or 1.25 MOI (from 0.01 to 1.25). Twenty hours after infection, whole cell lysate samples were obtained and the Western assay shown in FIG. 6 was performed to examine protein levels.

Compound: Nn1c(S)nnc1-c1ccc(F)cc1 [SD-29]
- expression of IE, DE and L HSV-1 proteins (triggered expression) (HSV-1): significantly inhibited triggered expression
- luminescence / proliferation of the HIV1 modified pNL4-3.Luc.R-E-virus [1]: significantly reduced proliferation
- viability of the infected cells (CEM T cells): did not decrease viability
- expression of RACK-1 (RACK-1): reduced expression of RACK-1
